Data on 22 compounds can be found in patent US6995182B2, “1-sulfonyl pyrrolidine derivatives” (Hoffmann-La Roche Inc., priority 2000, dated 2006).

The melting point is the temperature of the solid-liquid transition. A word on the EC50: it is the concentration at which the effect is half-maximal. A low value points to greater potency.

One data set addresses T1, rat mGlu 1a receptor (Rattus norvegicus, UniProt P23385).
T1 construct: expressed in transfected cells; host or cells: EBNA cells (transient transfection)
In words: [Ca2+]i measurements (FLIPR, Fluo-3 AM) on mGlu 1a transfected EBNA cells. Conditions: rat mGlu 1a receptor transiently transfected into EBNA cells, agonist activity. It is filed as cell-based. How it is done: The pharmacological activity of the compounds was tested using the following method: cDNA encoding rat mGlu 1a receptor was transiently transfected into EBNA cells using a procedure described by E.-J. Schlaeger and K. Christensen (Transient gene expression in mammalian cells grown in serum-free suspension culture; Cytotechnology, 15: 1–13, 1998). [Ca^2+]i measurements were performed on mGlu 1a transfected EBNA cells after incubation of the cells with Fluo-3 AM (0.5 μM final concentration) for 1 hour at 37° C. followed by 4 washes with assay buffer (DMEM supplemented with Hank's salt and 20 mM HEPES. [Ca^2+]i measurements were done using a fluorometric imaging plate reader (FLIPR, Molecular Devices Corporation, La Jolla, Calif., USA). When compounds were evaluated as antagonists they were tested against 10 μM glutamate as agonist.
The inhibition (antagonists) or activation (agonists) curves were fitted with a four parameter logistic equation giving EC50, IC50, and Hill coefficient using the iterative non linear curve fitting software Origin (Microcal Software Inc., Northampton, Mass., USA).

T1 sequence (P23385 19-1199): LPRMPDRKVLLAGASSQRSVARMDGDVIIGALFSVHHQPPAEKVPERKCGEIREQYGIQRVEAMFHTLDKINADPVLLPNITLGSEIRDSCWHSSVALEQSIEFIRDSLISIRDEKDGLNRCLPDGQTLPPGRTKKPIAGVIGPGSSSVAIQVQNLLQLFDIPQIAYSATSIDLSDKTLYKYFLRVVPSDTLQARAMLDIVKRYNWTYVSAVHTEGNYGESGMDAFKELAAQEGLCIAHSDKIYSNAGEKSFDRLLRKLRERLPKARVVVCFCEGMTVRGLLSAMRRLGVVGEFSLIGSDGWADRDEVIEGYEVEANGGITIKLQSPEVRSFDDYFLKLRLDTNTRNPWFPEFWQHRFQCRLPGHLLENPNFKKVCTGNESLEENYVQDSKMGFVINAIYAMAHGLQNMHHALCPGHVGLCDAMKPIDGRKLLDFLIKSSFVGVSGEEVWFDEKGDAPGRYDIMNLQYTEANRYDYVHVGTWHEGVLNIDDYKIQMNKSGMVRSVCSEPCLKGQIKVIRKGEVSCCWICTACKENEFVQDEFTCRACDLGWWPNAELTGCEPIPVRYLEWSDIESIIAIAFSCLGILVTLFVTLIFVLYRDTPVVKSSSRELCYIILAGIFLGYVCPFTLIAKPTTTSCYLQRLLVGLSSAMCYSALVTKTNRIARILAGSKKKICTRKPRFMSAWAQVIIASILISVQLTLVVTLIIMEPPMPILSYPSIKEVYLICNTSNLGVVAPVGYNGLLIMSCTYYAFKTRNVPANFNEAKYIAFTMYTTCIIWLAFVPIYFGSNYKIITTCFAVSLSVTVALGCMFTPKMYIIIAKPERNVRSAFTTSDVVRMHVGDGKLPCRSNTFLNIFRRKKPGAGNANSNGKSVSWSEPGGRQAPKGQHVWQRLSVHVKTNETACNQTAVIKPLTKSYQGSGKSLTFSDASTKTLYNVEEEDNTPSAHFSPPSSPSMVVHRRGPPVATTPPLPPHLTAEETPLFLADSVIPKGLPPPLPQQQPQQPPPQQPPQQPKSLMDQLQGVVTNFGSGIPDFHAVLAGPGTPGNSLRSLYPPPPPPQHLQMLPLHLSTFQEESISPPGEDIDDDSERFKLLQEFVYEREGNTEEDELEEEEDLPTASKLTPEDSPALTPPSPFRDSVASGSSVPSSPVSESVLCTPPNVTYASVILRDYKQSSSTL

Turning to `Cc1ccc(S(=O)(=O)N2[C@@H](C#N)CC[C@H]2c2ccc(F)cc2)cc1` (racemic) [Example 4, (2RS,5SR)-5-(4-Fluoro-phenyl)-1-(toluene-4-sulfonyl)-pyrrolidine-2-carbonitrile], the melting point was determined as 128 °C. In addition, the response at rat mGlu 1a receptor was half-maximal at 4400 nM (EC50). As to `Cc1ccc(S(=O)(=O)N2[C@@H](CCl)CC[C@H]2c2ccc(F)cc2)cc1` (racemic) [Example 5, (2RS,5SR)-2-Chloromethyl-5-(4-fluoro-phenyl)-1-(toluene-4-sulfonyl)-pyrrolidine], the melting point worked out at 130 °C. On rat mGlu 1a receptor, this compound registered an EC50 of 1400 nM. For `Cc1ccc(S(=O)(=O)N2[C@@H](CNC(=O)C3CC3)CC[C@H]2c2ccc(F)cc2)cc1` (racemic) [Example 16, (2RS,5SR)-Cyclopropanecarboxylic acid [5-(4-fluoro-phenyl)-1-(toluene-4-sulfonyl)-pyrrolidin-2-yl-methyl]-amide] the same measures were 154 °C and 210 nM. `Cc1ccc(S(=O)(=O)N2[C@@H](Cc3noc(C)n3)CC[C@H]2c2ccc(F)cc2)cc1` (racemic) [Example 21, (2RS,5SR)-3-[5-(4-Fluoro-phenyl)-1-(toluene-4-sulfonyl)-pyrrolidin-2-yl-methyl]-5-methyl-[1,2,4]oxadiazole] displayed an EC50 at rat mGlu 1a receptor of 630 nM.

With `Cc1ccc(S(=O)(=O)N2[C@@H](Cc3nnn(C)n3)CC[C@H]2c2ccc(F)cc2)cc1` (racemic) [Example 39, (2RS,5SR)-5-[5-(4-Fluoro-phenyl)-1-(toluene-4-sulfonyl)-pyrrolidin-2-yl-methyl]-2-methyl-2H-tetrazole], on rat mGlu 1a receptor, the EC50 came to 360 nM.

As to `Cc1ccc(S(=O)(=O)N2[C@H](CCCNS(C)(=O)=O)CC[C@@H]2c2ccc(F)cc2)cc1` (racemic) [Example 77, (2RS,5RS)-N-{3-[5-(4-Fluoro-phenyl)-1-(toluene-4-sulfonyl)-pyrrolidin-2-yl]-propyl}-methanesulfonamide], the melting point was 123 °C. For the same compound, at rat mGlu 1a receptor, a half-maximal effect (EC50) was put at 160 nM. In turn, `Cc1ccc(S(=O)(=O)N2[C@@H](CCc3ncnn3C)CC[C@H]2c2ccc(F)cc2)cc1` (racemic) [Example 78, (2RS,5SR)-5-{2-[5-(4-Fluoro-phenyl)-1-(toluene-4-sulfonyl)-pyrrolidin-2-yl]-ethyl}-1-methyl-1H-[1,2,4]triazole] returned a melting point of 145 °C. In turn, `Cc1ccc(S(=O)(=O)N2CCCC2CCCNC(=O)C2CC2)cc1` (racemic) [Example 87, (RS)-Cyclopropanecarboxylic acid {3-[1-(toluene-4-sulfonyl)-pyrrolidin-2-yl]-propyl}-amide] came in with a concentration for a half-maximal effect (EC50) on rat mGlu 1a receptor of 980 nM. Turning to `Cc1ccc(S(=O)(=O)N2[C@@H](Cc3nc(C4CC4)no3)CC[C@H]2c2ccc(F)cc2)cc1` (racemic) [Example 95, (2RS,5SR)-3-Cyclopropyl-5-[5-(4-fluoro-phenyl)-1-(toluene-4-sulfonyl)-pyrrolidin-2-ylmethyl]-[1,2,4]oxadiazole], the melting point stood at 102 °C. On the same count and under the same terms, as for `Cc1ccc(S(=O)(=O)N2[C@@H](Cc3nc(C)no3)CC[C@H]2c2ccc(F)cc2)cc1` (racemic) [Example 96, (2RS,5SR)-5-[5-(4-Fluoro-phenyl)-1-(toluene-4-sulfonyl)-pyrrolidin-2-ylmethyl]-3-methyl-[1,2,4]oxadiazole], the figure is 103 °C; as for `Cc1ccc(S(=O)(=O)N2[C@@H](CCO)CC[C@H]2c2ccc(F)cc2)cc1` (racemic) [Example 98, (2RS,5SR)-2-[5-(4-Fluoro-phenyl)-1-(toluene-4-sulfonyl)-pyrrolidin-2-yl]-ethanol], 129 °C; as for `Cc1ccc(S(=O)(=O)N2[C@@H](CCn3cccn3)CC[C@H]2c2ccc(F)cc2)cc1` (racemic) [Example 100, (2RS,5SR)-1-{2-[5-(4-Fluoro-phenyl)-1-(toluene-4-sulfonyl)-pyrrolidin-2-yl]-ethyl}-1H-pyrazole], 121 °C.

Turning to `Cc1ccc(S(=O)(=O)N2[C@@H](CCn3ncnn3)CC[C@H]2c2ccc(F)cc2)cc1` (racemic) [Example 101, (2RS,5SR)-2-{2-[5-(4-Fluoro-phenyl)-1-(toluene-4-sulfonyl)-pyrrolidin-2-yl]-ethyl}-2H-tetrazole], the EC50 at rat mGlu 1a receptor amounted to 1470 nM. As to `Cc1ccc(S(=O)(=O)N2[C@H](CCCc3nc(C)cc(C)n3)CC[C@@H]2c2ccc(F)cc2)cc1` (racemic) [Example 123, (2RS,5RS)-2-{3-[5-(4-Fluoro-phenyl)-1-(toluene-4-sulfonyl)-pyrrolidin-2-yl]-propyl}-4,6-dimethyl-pyrimidine], at rat mGlu 1a receptor, a half-maximal response (EC50) required 1280 nM. As to `Cc1ccc(S(=O)(=O)N2[C@@H](CCc3nnco3)CC[C@H]2c2ccc(F)cc2)cc1` (racemic) [Example 127, (2RS,5SR)-2-{2-[5-(4-Fluoro-phenyl)-1-(toluene-4-sulfonyl)-pyrrolidin-2-yl]-ethyl}-[1,3,4]oxadiazole], the melting point is 138 °C. Regarding `Cc1ccc(S(=O)(=O)N2[C@@H](c3nnco3)CC[C@H]2c2ccc(F)cc2)cc1` (racemic) [Example 137, (2RS,5SR)-2-[5-(4-Fluoro-phenyl)-1-(toluene-4-sulfonyl)-pyrrolidin-2-yl]-[1,3,4]oxadiazole], the response at rat mGlu 1a receptor was half-maximal at 1240 nM (EC50). `Cc1ccc(S(=O)(=O)N2[C@H](CCCCn3ncnn3)CC[C@@H]2c2ccc(F)cc2)cc1` (racemic) [Example 143, (2RS,5RS)-2-{4-[5-(4-Fluoro-phenyl)-1-(toluene-4-sulfonyl)-pyrrolidin-2-yl]-butyl}-2H-tetrazole] displayed an EC50 on rat mGlu 1a receptor of 350 nM.

In turn, `Cc1ccc(S(=O)(=O)N2C(CCCO)CC[C@H]2c2ccc(F)cc2)cc1` (stereo in doubt) [Example 64, (2S,5S)-3-[5-(4-Fluoro-phenyl)-1-(toluene-4-sulfonyl)-pyrrolidin-2-yl]-propan-1-ol] returned an EC50 on rat mGlu 1a receptor of 200 nM. Compared with the last compound, the EC50 is about 1.8-fold lower. The compound `Cc1ccc(S(=O)(=O)N2C(C3=NOC(C)N3)CCC2c2ccc(F)cc2)cc1` (centres unmarked) [Example 28, 3-[5-(4-Fluoro-phenyl)-1-(toluene-4-sulfonyl)-pyrrolidin-2-yl]-5-methyl-4,5-dihydro-[1,2,4]oxadiazole] gave a melting point of 68 °C. On the same count and under the same terms, next, `Cc1ccc(S(=O)(=O)N2[C@@H](CO)CC[C@H]2c2ccc(F)cc2)cc1` [Example 58, (2R,5S)-[5-(4-Fluoro-phenyl)-1-(toluene-4-sulfonyl)-pyrrolidin-2-yl]-methanol]: 140 °C. `Cc1ccc(S(=O)(=O)N2[C@@H](CCCO)CC[C@H]2c2ccc(F)cc2)cc1` [Example 64, (2S,5S)-3-[5-(4-Fluoro-phenyl)-1-(toluene-4-sulfonyl)-pyrrolidin-2-yl]-propan-1-ol] registered a melting point of 96 °C.

In the case of `Cc1ccc(S(=O)(=O)N2[C@@H](CCCn3ccnc3)CC[C@H]2c2ccc(F)cc2)cc1` [Example 116, (2S,5S)-1-{3-[5-(4-Fluoro-phenyl)-1-(toluene-4-sulfonyl)-pyrrolidin-2-yl]-propyl}-1H-imidazole], a half-maximal effect on rat mGlu 1a receptor (EC50) was put at 220 nM. That is a sub-micromolar value.
